Reference: publication PMC9863691, “A Novel Ferroptosis Inhibitor UAMC-3203, a Potential Treatment for Corneal Epithelial Wound” (Pharmaceutics, 2022)

What was measured:
[1] = system: human corneal epithelial (HCE) cells; experiment: in vitro scratch assay; type: cell-based; settings: for HCE cell migration (%): 72 h, negative control 55.6 ± 17.6%
Procedure: In vitro scratch assay was performed in confluent HCE monolayer as previously reported. HCE cells were seeded on 24-well plates at 1 × 10^5 cells/well incubated for 24 h. The monolayer was scratched with sterile 10 µL pipette tips perpendicular to the lines to create a consistent cell-free area. The cells were washed three times with pre-warmed PBS to remove detached cells. The cells were then exposed to UAMC-3203 at different concentrations (10 nM, 1 µM, 10 µM, 50 µM) in serum-free DMEM (Dulbecco’s Modified Eagle Medium): F12 media that was supplemented with 1% penicillin-streptomycin solution […] penicillin, 0.1 mg/mL streptomycin (Corning, Ref 30-002-CI, Mediatech Inc., Discovery Boulevard, Manassas, VA, USA). Serum-free medium was used as a negative control, and 1.5% fetal bovine serum (FBS 10270, Gibco by Life Technologies, Carlsbad, CA, USA) supplemented medium was used as a positive control. The well plates were then transferred to Cell-IQ (CM Technologies Limited, Tampere, Finland) and maintained in standard tissue culture conditions (37 °C, 5% CO2-atmosphere).
Images were taken immediately after scratch (less than 1 h) and at 6, 12, 24, 30, 42, 48, and 72 h and analyzed by Cell-IQ analyzer. Three independent experiments were performed, using two to three wells for each stimulating condition. Cell migration (A%) was calculated as follows:(1) A%=A0−At/A0×100 where A0 and At represent the wound areas at 0 h and each timepoint, respectively.

[2] = human microsome; cited from earlier work
[3] = system: alkali burn corneal wounds in ex vivo mouse eyes; experiment: corneal epithelial wound healing in ex vivo mouse eyes; design: species or system C57BL/6 mice; settings: for initial wound area: 0–2 h after wound
Source text: For the study, C57BL/6 mice (Laboratory Animal Centre, the University of Eastern Finland) were euthanized, and the eyes were excised carefully with sterile forceps and micro-scissors to avoid any damage to the cornea. The eyes were transported in ice-cold Dulbecco’s modified Eagle’s Medium/Ham’s F12 (DMEM/F-12, Gibco, Life Technologies, Carlsbad, CA, USA). Then the eyes were adhered to a Petri dish with tissue adhesive (3M Vetbond, St. Paul, MN, USA). The corneal epithelial wound was produced by placing an alkali soaked (0.5% sodium hydroxide) Whitman filter paper of 2 mm diameter on the corneal surface for 2 min, as reported earlier. After removal of the filter paper, the remaining epithelium on the alkali-exposed surface was carefully removed with a micro scalpel, and the eyes were rinsed with PBS. Pre-warmed UAMC-3203 (10 mL of 10 nM, 1µM, 10 µM, and 50 µM solutions) was added in serum-free media that was supplemented with 1% penicillin-streptomycin solution ([…], 0.1 mg/mL streptomycin) (Corning, Ref 30-002-CI, Mediatech Inc., Discovery Boulevard, Manassas, VA, USA) to the Petri dishes so that the eyes were submerged. The serum-free medium without UAMC-3203 was used as the negative control, and the medium with 10% FBS was used as the positive control. The samples were cultivated under standard tissue culture conditions (37 °C, 5% CO2-atmosphere, and 95% relative humidity) for 48 h. In order to measure the wound area, images were taken with a Zeiss Axio Scope A1 microscope (Carl Zeiss Microscopy GmbH, Oberkochen, Germany) at different time points (initial (in less than 2 h after wound), 6, 24, 30, and 48 h). For imaging, the media was removed from the dish, and 0.1% fluorescein (2 µL) was added to the corneal surface, followed by PBS (10 µL) to rinse excess fluorescein. A clean tissue was then used to soak excess fluorescein and PBS, and the medium was added again to the dish after imaging. The medium was changed after 24 h. The wound area was quantified with Fiji software.

HCE cells = experiment: in vitro cytotoxicity, MTT assay; type: cell-based, human; settings: 3 h exposure
Procedure: The cytotoxicity of UAMC-3203 was assessed by MTT assay. The HCE cells were seeded on a 96-well plate at a density of 100,000 cells/well in 200 µL of supplemented growth medium. The next day the cells were washed with PBS (pH 7.2). The cells were then exposed to UAMC-3203 at concentrations 10 nM, 1 µM, 10 µM, and 50 µM for 3 h. For control, cells not exposed to UAMC-3203 cultured in a serum-free medium were used. The cells were then washed twice with PBS and incubated 2 h with 100 µL of 10% of thiazolyl blue tetrazolium bromide (MTT, Sigma-Aldrich, St. Louis, MO, USA) in a serum-free medium. An amount of 100 µL of 20% (w/v) sodium dodecyl sulfate (SDS), N-dimethylformamide (DMF) lysis buffer was added to each well and incubated overnight. The following day, cell viability was evaluated by measuring absorbance at 570 nm with a Victor^2 multilabel plate reader (PerkinElmer, Wallac, St. Paul, MN, USA). The cell viability % was calculated as below:(2) % of cell viability=Abs exposed cells−Abs blank/Abs non−exposed cells−Abs blank×100 where Abs exposed cells = absorbance of cells exposed to UAMC-3203; Abs blank = absorbance of well plates without cells; and Abs non–exposed cells = Absorbance of cells exposed to serum-free medium (i.e., control).

For `O=S(=O)(NCCN1CCNCC1)c1ccc(NC2CCCCC2)c(NCc2ccccc2)c1` [UAMC-3203], the “HCE cell migration (%)” value ([1]; 10 nM) was 84.9 ± 12.5%, the “HCE cell migration (%)” value ([1]; 1 µM) was 76.6 ± 15.2% and the “cell migration compared to negative control” value ([1]; 10 µM) was “no notable difference at any time point”. For the same compound, the “change of scratch area” value ([1]; 50 µM) was “did not cause any changes in the scratch area”, the “optimal concentration for corneal epithelial wound healing effect in vitro” value ([1]; in vitro) was 10 nM and the “t1/2 in human microsome” value [2] was 20 h. For the same compound, the initial wound area ([3]; 10 nM) was 2.59 ± 0.27 mm^2, the “wound area at 48 h” value ([3]; 10 nM) was 0.22 ± 0.16 mm^2 and the “wound area compared to negative control” value ([3]; 10 nM, p = 0.03) was “significantly lower wound area at 48 h”. For the same compound, the wound healing ([3]; 10 nM–10 µM) was greater than 85%, the “wound area compared to negative control” value ([3]; 1 µM) was “no notable difference at any time point” and the initial wound area ([3]; 1 µM) was 2.46 ± 0.42 mm^2. The “wound area at 48 h” value ([3]; 1 µM) was 0.35 ± 0.3 mm^2, the initial wound area ([3]; 10 µM) was 2.44 ± 0.52 mm^2 and the “wound area at 48 h” value ([3]; 10 µM) was 0.10 ± 0.21 mm^2. For the same compound, the “wound area compared to negative control” value ([3]; 10 µM, p ≤ 0.005) was “significant difference in wound area at 24–48 h”, the “change of corneal epithelial wound area” value ([3]; 50 µM) was “did not cause any changes in the corneal epithelial wound area” and the “optimal concentration for wound healing” value ([3]; ex vivo) was 10 µM. For the same compound, the “toxicity to HCE cells” value (HCE cells; 10 nM) was “did not cause any toxicity”, the “toxicity to HCE cells” value (HCE cells; 1 µM) was “did not cause any toxicity” and the HCE cell viability (HCE cells; 10 µM) was 75 ± 6.7%. It also gave an HCE cell viability (HCE cells; 50 µM) of 39.2 ± 5.6%.
